Assays:
[1] = test system: H1975 (EGFR T790M/L858R) cell proliferation; assay: H1975 proliferation assay (Cell Titer-Glo); format: cell-based; conditions: Homo sapiens, NCI-H1975, 72 h, NCI-H1975 cells, 72 hour incubation, read-out: H1975 antiproliferative EC50
Method: H1975 Proliferation Assays
All cell culture reagents were purchased from Invitrogen/Gibco. Cells are cultured at 37° C. at 5% CO2 and split as recommended by ATCC.

EGFR del746-750 T790M = target: T1, EGFR del746-750 T790M (Homo sapiens, UniProt P00533, DEL746-750/T790M); assay: EGFR del746-750 T790M biochemical assay (Caliper mobility shift); conditions: 5 μM ATP; apparent Ki (Morrison fit) converted by Cheng-Prusoff, Km of ATP 2.1 μM; read-out: EGFR(T790M/d746-750) Ki
T1 construct: purchased Carna Biosciences 08-528
T1 sequence (P00533 with tags, fused parts or gaps DEL746-750/T790M limits assumed): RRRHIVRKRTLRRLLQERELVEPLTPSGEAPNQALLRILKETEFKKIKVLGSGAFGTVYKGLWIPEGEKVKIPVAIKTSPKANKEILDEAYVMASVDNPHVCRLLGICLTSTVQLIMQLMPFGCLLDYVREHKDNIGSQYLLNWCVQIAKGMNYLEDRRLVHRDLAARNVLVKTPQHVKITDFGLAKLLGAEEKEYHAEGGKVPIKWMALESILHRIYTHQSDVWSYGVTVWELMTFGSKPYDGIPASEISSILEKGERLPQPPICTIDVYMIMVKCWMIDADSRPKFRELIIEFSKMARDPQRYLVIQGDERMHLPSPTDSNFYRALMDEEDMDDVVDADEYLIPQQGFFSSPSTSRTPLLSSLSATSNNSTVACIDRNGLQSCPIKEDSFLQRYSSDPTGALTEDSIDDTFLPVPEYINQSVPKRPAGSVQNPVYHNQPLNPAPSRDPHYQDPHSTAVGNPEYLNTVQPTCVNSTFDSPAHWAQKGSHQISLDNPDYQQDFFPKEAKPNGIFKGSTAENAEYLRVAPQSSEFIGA
Method in brief: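 Kinase reactions ran 30 min at room temperature (22 °C), then were stopped with 80 mM EDTA. Phosphorylated product and substrate were separated electrophoretically and quantified by Caliper mobility shift.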

EGFR T790M L858R = target: T2, EGFR T790M L858R (Homo sapiens, UniProt P00533, L858R/T790M); assay: EGFR T790M L858R biochemical assay (Caliper mobility shift); conditions: 5 μM ATP; apparent Ki (Morrison fit) converted by Cheng-Prusoff, Km of ATP 1.3 μM
T2 construct: purchased Life Technologies PV4879
T2 sequence (P00533 25-1210 T790M/L858R): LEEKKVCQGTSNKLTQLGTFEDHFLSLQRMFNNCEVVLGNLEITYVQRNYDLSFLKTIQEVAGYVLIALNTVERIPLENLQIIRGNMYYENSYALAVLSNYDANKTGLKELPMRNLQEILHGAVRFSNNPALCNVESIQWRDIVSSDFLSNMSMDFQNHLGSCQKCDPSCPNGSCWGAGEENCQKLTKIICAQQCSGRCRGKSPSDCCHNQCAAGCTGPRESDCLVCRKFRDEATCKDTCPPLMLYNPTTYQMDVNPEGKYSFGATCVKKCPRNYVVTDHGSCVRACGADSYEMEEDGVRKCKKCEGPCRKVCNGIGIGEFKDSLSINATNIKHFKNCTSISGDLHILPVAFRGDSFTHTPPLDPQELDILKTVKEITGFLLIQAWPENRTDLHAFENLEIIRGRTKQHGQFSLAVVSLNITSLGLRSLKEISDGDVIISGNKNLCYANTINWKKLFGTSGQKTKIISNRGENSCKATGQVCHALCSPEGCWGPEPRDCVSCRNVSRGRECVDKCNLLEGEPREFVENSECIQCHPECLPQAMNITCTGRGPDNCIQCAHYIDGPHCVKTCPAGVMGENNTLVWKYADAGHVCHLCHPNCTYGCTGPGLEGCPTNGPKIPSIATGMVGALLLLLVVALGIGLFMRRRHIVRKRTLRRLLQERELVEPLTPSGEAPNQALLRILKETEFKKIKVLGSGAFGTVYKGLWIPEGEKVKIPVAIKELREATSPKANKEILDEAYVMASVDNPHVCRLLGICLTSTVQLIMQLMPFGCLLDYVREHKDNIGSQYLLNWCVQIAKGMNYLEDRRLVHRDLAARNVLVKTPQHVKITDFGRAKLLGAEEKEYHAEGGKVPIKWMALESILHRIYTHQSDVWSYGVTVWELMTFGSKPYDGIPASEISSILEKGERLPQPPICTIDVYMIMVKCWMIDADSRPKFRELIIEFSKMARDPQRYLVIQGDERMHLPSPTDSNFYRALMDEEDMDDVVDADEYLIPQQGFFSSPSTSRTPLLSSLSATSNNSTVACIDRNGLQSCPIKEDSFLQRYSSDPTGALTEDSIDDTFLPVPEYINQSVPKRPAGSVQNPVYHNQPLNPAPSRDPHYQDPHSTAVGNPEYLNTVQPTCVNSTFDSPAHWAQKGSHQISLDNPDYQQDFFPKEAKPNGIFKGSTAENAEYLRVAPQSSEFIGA
Method in brief: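 Reactions run 30 minutes at room temperature (22 °C), stopped with 80 mM EDTA. Phosphorylated product and substrate separated electrophoretically and quantified by Caliper mobility shift.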

[2] = target: T3, phosphor-EGFR in H1975(L585R/T790M) mutant EGFR expressing cells (Homo sapiens, UniProt P00533, L858R/T790M); assay: H1975 pEGFR MSD cellular assay; format: cell-based; conditions: NCI-H1975 cells, serum starved, 1 hour compound incubation, pEGFR Tyr1068 MSD; read-out: HI975 pEGFR EC50
T3 construct: host or cells: NCI-H1975
T3 sequence (P00533 25-1210 T790M/L858R): as above
Method in brief: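 NCI-H1975 cells, 30,000/well, serum-starved overnight, then treated 1 hour at 37° C with serially diluted compounds in serum-free medium (0.5% DMSO). Lysates captured on anti-phospho-EGFR plates overnight at 4° C, detected with SULFO-TAG anti-total EGFR by electrochemiluminescence. Inhibition vs untreated controls; EC50 from 4-parameter logistic fit.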

Row | EC50 [1] [nM] | Ki (EGFR del746-750 T790M) [nM] | Ki (EGFR T790M L858R) [nM] | EC50 [2] [nM] | Structure (SMILES)
1 | 2520 | 1.1 | 1.2 | 430 | CC(C)n1nc(N2CC(C(=O)N3CC[C@@H](O)C3)C2)c2cnc(Nc3ccnc(-c4cnn(S(=O)(=O)C5CC5)c4)n3)cc21 [Example 164, (R)-(1-(6-(2-(1-(Cyclopropylsulfonyl)-1H-pyrazol-4-yl)pyrimidin-4-ylamino)-1-isopropyl-1H-pyrazolo[4,3-c]pyridin-3-yl)azetidin-3-yl)(3-hydroxypyrrolidin-1-yl)methanone]
2 | 193 | 1.9 | 1.9 | 95.6 | CC(C)n1nc(N2CC(C(=O)NCC(F)(F)F)C2)c2cnc(Nc3ccnc(-c4cnn(S(=O)(=O)C5CC5)c4)n3)cc21 [Example 165, 1-(6-(2-(1-(Cyclopropylsulfonyl)-1H-pyrazol-4-yl)pyrimidin-4-ylamino)-1-isopropyl-1H-pyrazolo[4,3-c]pyridin-3-yl)-N-(2,2,2-trifluoroethyl)azetidine-3-carboxamide]
3 | 1160 | 0.7 | 0.7 | 177 | CC(C)n1nc(N2CC(C(=O)N3CC[C@H](CO)C3)C2)c2cnc(Nc3ccnc(-c4cnn(S(=O)(=O)C5CC5)c4)n3)cc21 [Example 166, (S)-(1-(6-(2-(1-(cyclopropylsulfonyl)-1H-pyrazol-4-yl)pyrimidin-4-ylamino)-1-isopropyl-1H-pyrazolo[4,3-c]pyridin-3-yl)azetidin-3-yl)(3-(hydroxymethyl)pyrrolidin-1-yl)methanone]
4 | 1830 | 0.5 | 0.7 | 189 | CC(C)n1nc(N2CC(C(=O)N3CC[C@@H](CO)C3)C2)c2cnc(Nc3ccnc(-c4cnn(S(=O)(=O)C5CC5)c4)n3)cc21 [Example 167, (R)-(1-(6-(2-(1-(cyclopropylsulfonyl)-1H-pyrazol-4-yl)pyrimidin-4-ylamino)-1-isopropyl-1H-pyrazolo[4,3-c]pyridin-3-yl)azetidin-3-yl)(3-(hydroxymethyl)pyrrolidin-1-yl)methanone]
5 | 283 | 1.2 | 1.5 | 25.5 | CC(C)n1nc(N2CC(C(=O)N3CC4CCC(C3)O4)C2)c2cnc(Nc3ccnc(-c4cnn(S(=O)(=O)C5CC5)c4)n3)cc21 [Example 168, 8-Oxa-3-azabicyclo[3.2.1]octan-3-yl(1-(6-(2-(1-(cyclopropylsulfonyl)-1H-pyrazol-4-yl)pyrimidin-4-ylamino)-1-isopropyl-1H-pyrazolo[4,3-c]pyridin-3-yl)azetidin-3-yl)methanone]
6 | 825 | 1.2 | 1.4 | 34.2 | CC(C)NC(=O)C1CN(c2nn(C(C)C)c3cc(Nc4ccnc(-c5cnn(S(=O)(=O)C6CC6)c5)n4)ncc23)C1 [Example 169, 1-(6-(2-(1-(Cyclopropylsulfonyl)-1H-pyrazol-4-yl)pyrimidin-4-ylamino)-1-isopropyl-1H-pyrazolo[4,3-c]pyridin-3-yl)-N-isopropylazetidine-3-carboxamide]
7 | > 10000 | 1.2 | 1.4 | 731 | CC(C)n1nc(N2CC(C(=O)NC3CC(O)C3)C2)c2cnc(Nc3ccnc(-c4cnn(S(=O)(=O)C5CC5)c4)n3)cc21 (stereo not drawn) [Example 170, 1-(6-(2-(1-(Cyclopropylsulfonyl)-1H-pyrazol-4-yl)pyrimidin-4-ylamino)-1-isopropyl-1H-pyrazolo[4,3-c]pyridin-3-yl)-N-(3-hydroxycyclobutyl)azetidine-3-carboxamide]
8 | 1070 | 33.1 | 6.2 | 703 | CC(n1nc(N2CCNC2=O)c2cnc(Nc3ccnc(N4CCC(C)(O)CC4)n3)cc21)C(F)(F)F (stereo not drawn) [Example 171, 1-(6-(2-(4-Hydroxy-4-methylpiperidin-1-yl)pyrimidin-4-ylamino)-1-(1,1,1-trifluoropropan-2-yl)-1H-pyrazolo[4,3-c]pyridin-3-yl)imidazolidin-2-one]
9 | 699 | 2.5 | 1.8 | 154 | CC(n1nc(N2CC3(COC3)C2)c2cnc(Nc3ccnc(-c4cnn(S(=O)(=O)C5CC5)c4)n3)cc21)C(F)(F)F (stereo not drawn) [Example 172, N-(2-(1-(Cyclopropylsulfonyl)-1H-pyrazol-4-yl)pyrimidin-4-yl)-3-(2-oxa-6-azaspiro[3.3]heptan-6-yl)-1-(1,1,1-trifluoropropan-2-yl)-1H-pyrazolo[4,3-c]pyridin-6-amine]
10 | > 10000 | 10.8 | 8.2 | 3260 | CC(C)n1nc(NCC(F)(F)F)c2cnc(Nc3ccnc(-c4cnn(S(=O)(=O)C5CC5)c4)n3)cc21 [Example 181, N^6-(2-(1-(cyclopropylsulfonyl)-1H-pyrazol-4-yl)pyrimidin-4-yl)-1-isopropyl-N^3-(2,2,2-trifluoroethyl)-1H-pyrazolo[4,3-c]pyridine-3,6-diamine]
11 | 208 | 3.1 | 1 | 44.9 | CCC(C)n1nc(N2CCNC2=O)c2cnc(Nc3ccnc(N4CC[C@H](O)[C@H](F)C4)n3)cc21 (stereo partly drawn) [Example 195, 1-(1-(sec-Butyl)-6-((2-((3R,4S)-3-fluoro-4-hydroxypiperidin-1-yl)pyrimidin-4-yl)amino)-1H-pyrazolo[4,3-c]pyridin-3-yl)imidazolidin-2-one]
12 | 263 | 1.1 | 0.9 | 12.5 | CCC(C)n1nc(N2CC[C@@H](O)C2)c2cnc(Nc3ccnc(N4CC[C@H](O)[C@H](F)C4)n3)cc21 (stereo partly drawn) [Example 196, (3R,4S)-1-(4-((1-(sec-Butyl)-3-((R)-3-hydroxypyrrolidin-1-yl)-1H-pyrazolo[4,3-c]pyridin-6-yl)amino)pyrimidin-2-yl)-3-fluoropiperidin-4-ol]
13 | 300 | 2.6 | 1.2 | 75.4 | CCC(C)n1nc(N2CCCC2=O)c2cnc(Nc3ccnc(N4CC[C@@H](O)[C@@H](F)C4)n3)cc21 (stereo partly drawn) [Example 200, 1-(1-(sec-Butyl)-6-((2-((3S,4R)-3-fluoro-4-hydroxypiperidin-1-yl)pyrimidin-4-yl)amino)-1H-pyrazolo[4,3-c]pyridin-3-yl)pyrrolidin-2-one]
14 | 881 | 4.8 | 2.8 | 141 | CCC(C)n1nc(N2CC3(COC3)C2)c2cnc(Nc3ccnc(N4CCC(C)(O)CC4)n3)cc21 (stereo not drawn) [Example 202, 1-(4-((1-(sec-Butyl)-3-(2-oxa-6-azaspiro[3.3]heptan-6-yl)-1H-pyrazolo[4,3-c]pyridin-6-yl)amino)pyrimidin-2-yl)-4-methylpiperidin-4-ol]
15 | 619 | 2.1 | 1.5 | 77 | CCC(C)n1nc(N2CC[C@@H](O)C2)c2cnc(Nc3ccnc(N4CCC(C)(O)CC4)n3)cc21 (stereo partly drawn) [Example 203, 1-(4-((1-(sec-Butyl)-3-((R)-3-hydroxypyrrolidin-1-yl)-1H-pyrazolo[4,3-c]pyridin-6-yl)amino)pyrimidin-2-yl)-4-methylpiperidin-4-ol]
16 | 569 | 4.5 | 2.2 | 224 | CCC(C)n1nc(N2CCCC2=O)c2cnc(Nc3ccnc(N4CCC(C)(O)CC4)n3)cc21 (stereo not drawn) [Example 204, 1-(1-(sec-Butyl)-6-((2-(4-hydroxy-4-methylpiperidin-1-yl)pyrimidin-4-yl)amino)-1H-pyrazolo[4,3-c]pyridin-3-yl)pyrrolidin-2-one]
17 | 831 | 9 | 2.7 | 287 | CC(C)n1nc(N2CC[C@@H](O)C2)c2cnc(Nc3ccnc(N4CCC(C)(O)CC4)n3)cc21 [Example 205, (R)-1-(4-((3-(3-Hydroxypyrrolidin-1-yl)-1-isopropyl-1H-pyrazolo[4,3-c]pyridin-6-yl)amino)pyrimidin-2-yl)-4-methylpiperidin-4-ol]
18 | 1110 | 8.9 | 1.9 | 298 | CCC(C)n1nc(N2CC[C@@H](O)C2)c2cnc(Nc3ccnc(N4CCC(S(C)(=O)=O)CC4)n3)cc21 (stereo partly drawn) [Example 206, (3R)-1-(1-(sec-Butyl)-6-((2-(4-(methylsulfonyl)piperidin-1-yl)pyrimidin-4-yl)amino)-1H-pyrazolo[4,3-c]pyridin-3-yl)pyrrolidin-3-ol]

— patent US9951064B2, “Azaindazole compounds as inhibitors of T790M containing EGFR mutants” (Genentech, Inc., priority 2013, dated 2018)
